Experiments:
Format in all cases: in vivo
Plutella xylostella = assay: Plutella xylostella, leaf dip method; settings: foliar, cabbage leaf dip, second instar larvae, 72 h after release, dead + moribund vs untreated control, read-out: percent mortality
Procedure, shortened: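 Cabbage leaves were dipped for 10 s in compound diluted with 0.01% Triton-X, shade dried and offered singly to second instar larvae. Trays were held at 25° C. and 70% relative humidity. Dead plus moribund larvae were scored at 72 h, and percent mortality was expressed relative to untreated control.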

Myzus persicae = assay: Myzus persicae, leaf dip method; settings: foliar, capsicum leaf dip, third instar nymphs, 72 h after release, dead + moribund vs untreated control, read-out: percent mortality
Method: The leaf dip method was used for testing, wherein the required quantity of the compound was weighed and dissolved in a tube containing solvent solution. The tube was put on a vortex at 2000 rpm for 90 min for proper mixing, then diluted with 0.01% Triton-X solution to the desired test concentration. Capsicum leaves were dipped in the compound solution for 10 seconds, shade dried for 20 min and then placed, with the abaxial side of the leaf up, in single cells of a bio-assay tray containing 4 ml of a 1% agar-agar solution. Known numbers of third instar nymphs, collected in petri plates, were released into the cell with the treated leaf and the cell was covered with a perforated lid for better aeration. The trays were kept in a plant growth chamber at a temperature of 25° C. and a relative humidity of 70%. Observations on dead, moribund and alive nymphs were recorded 72 h after the release. Percent mortality was calculated by combining dead and moribund nymphs and comparing the result with the one of the untreated control.

Helicoverpa armigera = assay: Helicoverpa armigera, diet incorporation method; settings: third instar larvae, 96 h after release, dead + moribund vs untreated control, read-out: percent mortality
Method: (§1) The diet incorporation method was used, in which the required quantity of the test compound was weighed and dissolved in a tube containing solvent solution. The tube was put on a vortex at 2000 rpm for 90 min for proper mixing. Semi-synthetic diet was incorporated into this solution when the temperature was approximately 50° C. in the bioassay containers. Compound and diet were stirred thoroughly for proper mixing and allowed to cool for 30 min. The solidified diet was cut into equal pieces, and then each piece was transferred into one cell of a bio-assay tray. A single starved third instar larva was released into each of the cells of the bioassay trays and the tray was covered with a lid. The bio-assay trays were then kept under laboratory conditions at a temperature of 25° C. and a relative humidity of 70%. Observations on dead, moribund and alive larvae were recorded 96 h after the release of the larvae. Percent mortality was calculated by combining dead and moribund larvae and comparing the result to the one of the untreated control.

Spodoptera litura = assay: Spodoptera litura, diet incorporation method; settings: third instar larvae, 96 h after release, dead + moribund vs untreated control, read-out: percent mortality
Method: as §1, with “covered with the lid. The” for “covered with a lid. The”, “release of larvae. Percent” for “release of the larvae. Percent”

Row | SMILES | mortality at 300 ppm (Plutella xylostella) | mortality at 300 ppm (Myzus persicae) | mortality at 300 ppm (Helicoverpa armigera) | mortality at 300 ppm (Spodoptera litura)
1 | CCCNc1ccc(S(=O)(=O)CC)c(-c2ccn3nc(C(F)(F)F)cc3n2)n1 [Compound 244, 5-(ethylsulfonyl)-N-propyl-6-(2-(trifluoromethyl)pyrazolo[1,5-a]pyrimidin-5-yl)pyridin-2-amine] | ≥ 70% | ≥ 70% | – | –
2 | CCS(=O)(=O)c1cc(-c2ccc(Cl)c(F)c2)cnc1-c1ccn2nc(C(F)(F)F)cc2n1 [Compound 126, 5-(5-(4-chloro-3-fluorophenyl)-3-(ethylsulfonyl)pyridin-2-yl)-2-(trifluoromethyl)pyrazolo[1,5-a]pyrimidine] | ≥ 70% | – | ≥ 70% | ≥ 70%
3 | CCS(=O)(=O)c1cc(OC(C)(C)C(N)=O)cnc1-c1ccn2nc(C(F)(F)F)cc2n1 [Compound 220, 2-((5-(ethylsulfonyl)-6-(2-(trifluoromethyl)pyrazolo[1,5-a]pyrimidin-5-yl)pyridin-3-yl)oxy)-2-methylpropanamide] | ≥ 70% | ≥ 70% | – | –
4 | CCS(=O)(=O)c1cc(O)cnc1-c1ccn2nc(C(F)(F)F)nc2n1 [Compound 109, 5-(ethylsulfonyl)-6-(2-(trifluoromethyl)-[1,2,4]triazolo[1,5-a]pyrimidin-5-yl)pyridin-3-ol] | – | ≥ 70% | – | –
5 | CCS(=O)(=O)c1cc(Br)cnc1-c1ccn2nc(C(F)(F)F)cc2n1 [Compound 29, 5-(5-bromo-3-(ethylsulfonyl)pyridin-2-yl)-2-(trifluoromethyl)pyrazolo[1,5-a]pyrimidine] | ≥ 70% | – | ≥ 70% | ≥ 70%
6 | CCS(=O)(=O)c1cc(-c2ccc(F)c(Cl)c2)cnc1-c1ccn2nc(C(F)(F)F)cc2n1 [Compound 127, 5-(5-(3-chloro-4-fluorophenyl)-3-(ethylsulfonyl)pyridin-2-yl)-2-(trifluoromethyl)pyrazolo[1,5-a]pyrimidine] | ≥ 70% | – | ≥ 70% | ≥ 70%
7 | CCS(=O)(=O)c1cc(-c2ccc(OC(F)(F)F)cc2)cnc1-c1ccn2nc(C(F)(F)F)cc2n1 [Compound 66, 5-(3-(ethylsulfonyl)-5-(4-(trifluoromethoxy)phenyl)pyridin-2-yl)-2-(trifluoromethyl)pyrazolo[1,5-a]pyrimidine] | ≥ 70% | – | ≥ 70% | ≥ 70%
8 | CCS(=O)(=O)c1cc(-c2ccn3nc(C(F)(F)F)cc3n2)cnc1-n1nccn1 [Compound 39, 5-(5-(ethylsulfonyl)-6-(2H-1,2,3-triazol-2-yl)pyridin-3-yl)-2-(trifluoromethyl)pyrazolo[1,5-a]pyrimidine] | ≥ 70% | – | ≥ 70% | ≥ 70%
9 | CCS(=O)(=O)c1cc(-c2ncccn2)cnc1-c1ccn2nc(C(F)(F)F)cc2n1 [Compound 231, 5-(3-(ethylsulfonyl)-5-(pyrimidin-2-yl)pyridin-2-yl)-2-(trifluoromethyl)pyrazolo[1,5-a]pyrimidine] | ≥ 70% | – | ≥ 70% | ≥ 70%
10 | CCS(=O)(=O)c1cc(-c2cc(F)cc(Cl)c2)cnc1-c1ccn2nc(C(F)(F)F)cc2n1 [Compound 111, 5-(5-(3-chloro-5-fluorophenyl)-3-(ethylsulfonyl)pyridin-2-yl)-2-(trifluoromethyl)pyrazolo[1,5-a]pyrimidine] | ≥ 70% | – | ≥ 70% | ≥ 70%
11 | CCS(=O)(=O)c1cc(-c2cc(F)cc(F)c2)cnc1-c1ccn2nc(C(F)(F)F)cc2n1 [Compound 125, 5-(5-(3,5-difluorophenyl)-3-(ethylsulfonyl)pyridin-2-yl)-2-(trifluoromethyl)pyrazolo[1,5-a]pyrimidine] | ≥ 70% | – | – | ≥ 70%
12 | CCS(=O)(=O)c1cc(-c2ccn3nc(C(F)(F)F)cc3n2)cnc1-n1ccc(C(F)(F)F)n1 [Compound 37, 5-(5-(ethylsulfonyl)-6-(3-(trifluoromethyl)-1H-pyrazol-1-yl)pyridin-3-yl)-2-(trifluoromethyl)pyrazolo[1,5-a]pyrimidine] | ≥ 70% | – | – | ≥ 70%
13 | CCS(=O)(=O)c1cc(-c2cccc(C(F)(F)F)c2)cnc1-c1ccn2nc(C(F)(F)F)cc2n1 [Compound 156, 5-(3-(ethylsulfonyl)-5-(3-(trifluoromethyl)phenyl)pyridin-2-yl)-2-(trifluoromethyl)pyrazolo[1,5-a]pyrimidine] | ≥ 70% | – | ≥ 70% | ≥ 70%
14 | CCS(=O)(=O)c1cc(C=CC2CC2)cnc1-c1ccn2nc(C(F)(F)F)cc2n1 [Compound 205, 5-(5-(2-cyclopropylvinyl)-3-(ethylsulfonyl)pyridin-2-yl)-2-(trifluoromethyl)pyrazolo[1,5-a]pyrimidine] | ≥ 70% | – | – | ≥ 70%
15 | CCS(=O)(=O)c1cc(-n2nc(C(F)(F)F)cc2C)cnc1-c1ccn2nc(C(F)(F)F)cc2n1 [Compound 38, 5-(3-(ethylsulfonyl)-5-(5-methyl-3-(trifluoromethyl)-1H-pyrazol-1-yl)pyridin-2-yl)-2-(trifluoromethyl)pyrazolo[1,5-a]pyrimidine] | ≥ 70% | – | ≥ 70% | ≥ 70%
16 | CCS(=O)(=O)c1cc(-c2ccc(F)cc2)cnc1-c1ccn2nc(C(F)(F)F)cc2n1 [Compound 94, 5-(3-(ethylsulfonyl)-5-(4-fluorophenyl)pyridin-2-yl)-2-(trifluoromethyl)pyrazolo[1,5-a]pyrimidine] | ≥ 70% | – | ≥ 70% | ≥ 70%
17 | CCS(=O)(=O)c1ccc(-n2cnc(C(F)(F)F)n2)nc1-c1ccn2nc(C(F)(F)F)cc2n1 [Compound 4, 5-(3-(ethylsulfonyl)-6-(3-(trifluoromethyl)-1H-1,2,4-triazol-1-yl)pyridin-2-yl)-2-(trifluoromethyl)pyrazolo[1,5-a]pyrimidine] | ≥ 70% | – | ≥ 70% | ≥ 70%
18 | CCS(=O)(=O)c1cc(C2CC2)cnc1-c1ccn2nc(C(F)(F)F)cc2n1 [Compound 136, 5-(5-cyclopropyl-3-(ethylsulfonyl)pyridin-2-yl)-2-(trifluoromethyl)pyrazolo[1,5-a]pyrimidine] | ≥ 70% | – | ≥ 70% | ≥ 70%
19 | CCS(=O)(=O)c1cc(-c2ccc(Cl)c(Cl)c2)cnc1-c1ccn2nc(C(F)(F)F)cc2n1 [Compound 155, 5-(5-(3,4-dichlorophenyl)-3-(ethylsulfonyl)pyridin-2-yl)-2-(trifluoromethyl)pyrazolo[1,5-a]pyrimidine] | ≥ 70% | – | ≥ 70% | ≥ 70%
20 | CCS(=O)(=O)c1cc(-c2ccc(OC(F)(F)C(F)F)cc2)cnc1-c1ccn2nc(C(F)(F)F)cc2n1 [Compound 96, 5-(3-(ethylsulfonyl)-5-(4-(1,1,2,2-tetrafluoroethoxy)phenyl)pyridin-2-yl)-2-(trifluoromethyl)pyrazolo[1,5-a]pyrimidine] | ≥ 70% | – | ≥ 70% | ≥ 70%
21 | CCS(=O)(=O)c1cc(-c2cc(Cl)cc(Cl)c2)cnc1-c1ccn2nc(C(F)(F)F)cc2n1 [Compound 76, 5-(5-(3,5-dichlorophenyl)-3-(ethylsulfonyl)pyridin-2-yl)-2-(trifluoromethyl)pyrazolo[1,5-a]pyrimidine] | – | – | ≥ 70% | ≥ 70%
22 | CCSc1cc(Br)cnc1-c1ccnc2cc(C(F)(F)F)nn12 [Compound 11, 7-(5-bromo-3-(ethylthio)pyridin-2-yl)-2-(trifluoromethyl)pyrazolo[1,5-a]pyrimidine] | – | ≥ 70% | – | –
23 | CCS(=O)(=O)c1cc(-c2ccc(OC(F)(F)F)cc2)cnc1-c1ccn2nc(C(F)(F)F)nc2n1 [Compound 100, 5-(3-(ethylsulfonyl)-5-(4-(trifluoromethoxy)phenyl)pyridin-2-yl)-2-(trifluoromethyl)-[1,2,4]triazolo[1,5-a]pyrimidine] | ≥ 70% | – | ≥ 70% | ≥ 70%

From patent US12514251B2, “Fused heterocyclic compounds and their use as pest control agents” (priority 2020, dated 2026)
